Assay results reported in US7517998B2, “Non nucleoside reverse transcriptase inhibitors” (priority 2004, dated 2009).

Target: T1, K103NNY181C mutant reverse transcriptase (Human immunodeficiency virus type 1 group M subtype B, UniProt P04585, K690N/Y768C)
T1 construct: mutations that occur in the reverse transcriptase segment of the pol gene
Experiment: Reverse transcriptase enzymatic assay (PicoGreen), K103N/Y181C mutant RT
Assay type: biochemical, HIV-1
Details: IC50 mut (nM), mutant (K103N/Y181C) reverse transcriptase, enzymatic assay of Example 24
Procedure: The enzymatic assay employed is described as follows: The reverse transcriptase (RT) enzyme assay has been adapted to a 96-well microtiter plate format and uses PicoGreen™ as a fluorescent intercalator. More explicitly, the HIV-1 RT enzyme was thawed and appropriately diluted into Tris/HCl 50 mM pH 7.8 containing NaCl 60 mM, MgCl2.6H2O 2 mM, DTT 6 mM, GSH 2 mM and 0.02% w/v Chaps to give ≈10 nM enzyme. To 10 μL of this enzyme solution was added 10 μL of inhibitor solution (40 μM to 2.032 nM inhibitor in the same assay buffer as above containing 4% v/v DMSO). The plate was pre-incubated for 15 minutes at room temperature before proceeding to the next step. In this pre-incubation step, the highest and lowest inhibitor concentrations were 20 μM and 1.016 nM respectively and the concentration of DMSO was 2% v/v. Then the enzymatic reaction was initiated by addition of 20 μL of substrate solution. The final reaction mixture contained Tris/HCl 50 mM pH 7.8, NaCl 60 mM, MgCl2.6H2O 2 mM, DTT 6 mM, GSH 2 mM, CHAPS 0.02% w/v, DMSO 1% v/v, poly rC 45 nM, dG15 4.5 nM, dGTP 3.6 μM, and 2.5 nM enzyme. In this incubation step, the highest and lowest inhibitor concentrations were 10 μM and 0.508 nM respectively. After addition of the substrate cocktail, the plate was covered with a plastic seal and incubated for 50 minutes at 37° C. in a dry incubator. The reaction was then quenched by addition of 5 μL of EDTA 0.5 M. The plate was shaken for 30 seconds at medium speed and incubated for 5 minutes at room temperature. Then 160 μL of PicoGreen™ 1:400 dilution from commercial stock (diluted in Tris 20 mM pH 7.5 with EDTA 1 mM) was added and the plate was shaken for 30 seconds and incubated for 10 minutes at room temperature. The plate was then analyzed using a POLARstar Galaxy fluorometer (BMG Labtechnologies) with λex and λem of 485 nm and 520 nm respectively. Each well was read for 1.25 second. Each row contained at its extremities a blank and a control well.

SMILES	IC50 [nM]
CC(C)(C)c1ccc(-n2nnnc2SCC(=O)Nc2ccc(NC(=O)c3cccc(C(=O)O)c3)cc2Cl)c(Cl)c1 [Compound 7027]	134
COc1ccc(CC(=O)Nc2ccc(NC(=O)CSc3nnnn3-c3ccc(C(C)(C)C)cc3Cl)c(Cl)c2)cc1 [Compound 7015]	189

Same assay, conditions: IC50 mut, K103N/Y181C mutant reverse transcriptase, enzymatic assay of Example 24

SMILES	IC50 [nM]
CC(C)(C#Cc1ccc(NC(=O)CSc2nnnn2-c2ccc(C(C)(C)C)cc2Cl)c(Cl)c1)OCC(=O)NCCO [Compound 4048]	26
CC(C)(C#Cc1ccc(NC(=O)CSc2nnnn2-c2ccc(C3CC3)cc2Cl)c(Cl)c1)NC(=O)CN1CCC(C(=O)O)CC1 [Compound 4154]	10.5
CC(C)(C#Cc1ccc(NC(=O)CSc2nnnn2-c2ccc(C3CC3)cc2Cl)c(Cl)c1)NC(=O)CN1CCN(CCn2cccc2)CC1 [Compound 4126]	78
CC(C)(C#Cc1ccc(NC(=O)CSc2nnnn2-c2ccc(C3CC3)cc2Cl)c(Cl)c1F)OCCO [Compound 4169]	9.2
CC(C)(C#Cc1ccc(NC(=O)CSc2nnnn2-c2ccc(C3CC3)cc2Cl)c(Cl)c1F)OCCOc1ccc[n+]([O-])c1 [Compound 4215]	56.5
CC(NC(=O)COC(C)(C)C#Cc1ccc(NC(=O)CSc2nnnn2-c2ccc(C(C)(C)C)cc2Cl)c(Cl)c1)C(=O)O (stereo not shown) [Compound 4053]	25
CC(C)(C#Cc1ccc(NC(=O)CSc2nnnn2-c2ccc(C3CC3)cc2Cl)c(Cl)c1)C(=O)NCc1cc[n+]([O-])cc1 [Compound 4148]	11
CC(C)c1ccc(-n2nnnc2SCC(=O)Nc2ccc(C#CC(C)(C)C(=O)O)cc2Cl)c(Cl)c1 [Compound 4121]	33.5
C#Cc1ccc(NC(=O)CSc2nnnn2-c2ccc(C(C)(C)C)cc2Cl)c(Cl)c1 [Compound 4089]	69
CC(C)(C#Cc1ccc(NC(=O)CSc2nnnn2-c2ccc(CC3CC3)cc2Cl)c(Cl)c1)NC(=O)c1cc[n+]([O-])cc1 [Compound 4247]	19
CN1CCN(C(=O)COC(C)(C)C#Cc2ccc(NC(=O)CSc3nnnn3-c3ccc(C(C)(C)C)cc3Cl)c(Cl)c2)CC1 [Compound 4023]	64
CC(C)(C#Cc1ccc(NC(=O)CSc2nnnn2-c2ccc(C(C)(C)C)cc2Cl)c(Cl)c1)OCC(=O)Nc1ccon1 [Compound 4054]	35
CC(C)(C#Cc1ccc(NC(=O)CSc2nnnn2-c2cc(C(C)(C)C)ccc2Cl)c(Cl)c1)C(=O)O [Compound 4200]	35.5
CC(C)(C#Cc1ccc(NC(=O)CSc2nnnn2-c2cc(C(F)(F)F)ccc2Cl)c(Cl)c1)NC(=O)c1ncccn1 [Compound 4139]	20.5
CC(C)(C#Cc1ccc(NC(=O)CSc2nnnn2-c2ccc(CC3CC3)cc2Cl)c(Cl)c1)OCCN1CCCC1 [Compound 4246]	212
COC(C)(C)C#Cc1ccc(NC(=O)CSc2nnnn2-c2ccc(C3CC3)cc2Cl)c(Cl)c1 [Compound 4074]	35.5

SMILES	IC50 [nM]
CC(C)(C#Cc1ccc(NC(=O)CSc2nnnn2-c2ccc(C3CC3)cc2Cl)c(Cl)c1)NC(=O)CNCCCn1ccnc1 [Compound 4127]	20.5
CC(C)(C#Cc1ccc(NC(=O)CSc2nnnn2-c2ccc(C3CC3)cc2Cl)c(Cl)c1)C(=O)NCCN1CCCC1 [Compound 4143]	65
CC(C)(C#Cc1ccc(NC(=O)CSc2nnnn2-c2ccc(C3CC3)cc2Cl)c(Cl)c1F)OCCN1CCNCC1 [Compound 4176]	108
CC(C)(C#Cc1ccc(NC(=O)CSc2nnnn2-c2cc(C(F)(F)F)cc(C3CC3)c2Cl)c(Cl)c1)OCCN1CCC(F)(F)C1 [Compound 4242]	854
CC(C)(C#Cc1ccc(NC(=O)CSc2nnnn2-c2cc(C(C)(C)C)cc(Br)c2Cl)c(Cl)c1)NC(=O)CNc1cc[n+]([O-])cc1 [Compound 4225]	162
CN(C)CC(=O)NC(C)(C)C#Cc1ccc(NC(=O)CSc2nnnn2-c2ccc(C3CC3)cc2Cl)c(Cl)c1F [Compound 4155]	9.15
CC(CC(=O)O)NC(=O)COC(C)(C)C#Cc1ccc(NC(=O)CSc2nnnn2-c2ccc(C(C)(C)C)cc2Cl)c(Cl)c1 (stereo not shown) [Compound 4046]	23
CC(C)(C#Cc1ccc(NC(=O)CSc2nnnn2-c2cc(Br)ccc2Cl)c(Cl)c1)NC(=O)c1cc[n+]([O-])cc1 [Compound 4222]	11.5
CC(C)(C#Cc1ccc(NC(=O)CSc2nnnn2-c2ccc(C3CC3)cc2Cl)c(Cl)c1)OCCN1CCCCC1 [Compound 4103]	218
CC(C)(C#Cc1ccc(NC(=O)CSc2nnnn2-c2ccc(C3CC3)cc2Cl)c(Cl)c1)OCCO [Compound 4098]	16.5
CC(C)(O)C#Cc1ccc(NC(=O)CSc2nnnn2-c2cc(F)cc(C(F)(F)F)c2Cl)c(Cl)c1 [Compound 4029]	212
CC(C)(C#Cc1ccc(NC(=O)CSc2nnnn2-c2cc(C(F)(F)F)ccc2Cl)c(Cl)c1F)OCCOc1ccncc1 [Compound 4166]	126
CC(C)(C#Cc1ccc(NC(=O)CSc2nnnn2-c2ccc(C3CC3)cc2Cl)c(Cl)c1)OCCN [Compound 4190]	59.5
Cc1cc(C#CC(C)(C)NC(=O)c2cc[n+]([O-])cc2)ccc1NC(=O)CSc1nnnn1-c1ccc(C2CC2)cc1Cl [Compound 4180]	71
CC(C)(C#Cc1ccc(NC(=O)CSc2nnnn2-c2cc(C3CC3)ccc2Cl)c(Cl)c1)NC(=O)c1cc[n+]([O-])cc1 [Compound 4208]	6.9
CC(C)(C#Cc1ccc(NC(=O)CSc2nnnn2-c2cc(C(C)(C)C)ccc2Cl)c(Cl)c1)NC(=O)CN1CCNCC1 [Compound 4202]	106

Same assay, conditions: IC50 mut, mutant reverse transcriptase, enzymatic assay of Example 24

SMILES	IC50 [nM]
CN1CCN(C(=O)COc2ccc(NC(=O)CSc3nnnn3-c3ccc(C(C)(C)C)cc3Cl)c(Cl)c2)CC1 [Compound 5003]	48
CC(C)(C)c1ccc(-n2nnnc2SCC(=O)Nc2ccc(C(=O)NCCc3ccc(O)c(O)c3)cc2Cl)c(Cl)c1 [Compound 6020]	51
CC(C)(C)c1ccc(-n2nnnc2SCC(=O)Nc2ccc(C(=O)NCCc3ccncc3)cc2Cl)c(Cl)c1 [Compound 6023]	22
CC(C)(C)c1ccc(-n2nnnc2SCC(=O)Nc2ccc(OCC(=O)NCc3ccc(N)cc3)cc2Cl)c(Cl)c1 [Compound 5026]	86
O=C(COc1ccc(NC(=O)CSc2nnnn2-c2ccc(C3CC3)cc2Cl)c(Cl)c1)NCCc1cc[n+]([O-])cc1 [Compound 5040]	563
Cc1ccc(-n2nccc2SCC(=O)Nc2ccc(-c3ccc(CC(=O)O)cc3)cc2Cl)c(Cl)c1 [Compound 1004]	420
CC(C)(C)c1cc(Cl)c(-n2nnnc2SCC(=O)Nc2ccc(-c3ccc(OCC(=O)O)cc3)cc2Cl)c(Cl)c1 [Compound 2018]	12
CC(C)(C#Cc1ccc(NC(=O)CSc2nnc(C(F)(F)F)n2-c2ccc(C3CC3)cc2Cl)c(Cl)c1)NC(=O)c1cc[n+]([O-])cc1 [Compound 1018]	51
CN(CCc1ccncc1)C(=O)COc1ccc(NC(=O)CSc2nnnn2-c2ccc(C3CC3)cc2Cl)c(Cl)c1 [Compound 5037]	174
O=C(O)Cc1ccc(-c2ccc(NC(=O)CSc3nnnn3-c3ccc(C4CC4)cc3Cl)c(Br)c2)cc1 [Compound 2048]	13
CC(C)(C)c1ccc(-n2nnnc2SCC(=O)Nc2ccc(-c3ccc(CCC(=O)O)cc3)cc2Cl)c(Cl)c1 [Compound 2028]	9.3
Cc1ccc(-n2nnnc2SCC(=O)Nc2ccc(-c3ccc(CC(=O)O)cc3)cc2Cl)c(Cl)c1 [Compound 2004]	48
Cc1ccc(-c2cn[nH]c2OCC(=O)Nc2ccc(-c3ccc(CC(=O)O)cc3)cc2Cl)c(Cl)c1 [Compound 1010]	156
CC(C)(C)c1ccc(-n2nnnc2SCC(=O)Nc2ccc(C(=O)Nc3cccc(C(=O)O)c3)cc2Cl)c(Cl)c1 [Compound 6021]	58
CC(C)(C)c1ccc(-n2nnnc2SCC(=O)Nc2ccc(OCC(=O)NCCC(=O)O)cc2Cl)c(Cl)c1 [Compound 5025]	124
CC(C)(C)c1ccc(-n2nnnc2SCC(=O)Nc2ccc(-c3ncc[nH]3)cc2Cl)c(Cl)c1 [Compound 3029]	76
CC(C)c1ccc(-n2nnnc2SCC(=O)Nc2ccc(-c3ccc(C(C)(C)C(=O)O)cc3)cc2Cl)c(Cl)c1 [Compound 2055]	56
CC(C)(C)c1ccc(-n2nnnc2SCC(=O)Nc2ccc(-c3ccc(OCCN4CCOCC4)cc3)cc2Cl)c(Cl)c1 [Compound 2022]	42
Cc1ccc(-n2nnnc2SCC(=O)Nc2ccc(-c3nnn[nH]3)cc2Cl)c(Cl)c1 [Compound 3019]	539
COC(=O)/C=C/c1ccc(NC(=O)CSc2nnnn2-c2ccc(C)cc2Cl)c(Cl)c1 [Compound 3005]	305
Cc1cc(NC(=O)c2ccc(NC(=O)CSc3nnnn3-c3ccc(C(C)(C)C)cc3Cl)c(Cl)c2)ccc1/C=C/C(=O)O [Compound 6032]	20.5
